PMC3081638 (The Journal of neuroscience : the official journal of the …, 2011)

How the values were obtained:
nicotinic α4β2 receptor = nicotinic α4β2 receptor (Homo sapiens, UniProt P43681); conditions: ref Paradiso et al., 2001; cited from earlier work
[1] = target: β/α concatemer expressed alone (Homo sapiens, UniProt P17787+P43681); experiment: Agonist activation, two-electrode voltage clamp of Xenopus oocytes; assay type: cell-based; conditions: response to 1 μM 5I A85380 normalized to the response to 1 mM ACh
β/α & α4 = β/α & α4 (Homo sapiens, UniProt P17787+P43681); experiment: as above; assay type: cell-based; conditions: response to 1 μM 5I A85380 normalized to the response to 1 mM ACh
α/β&β2F119Q = α/β&β2F119Q (Homo sapiens, UniProt P17787+P43681, F144Q); experiment: as above; assay type: cell-based
α/β & α4 = α/β & α4 (Homo sapiens, UniProt P17787+P43681); experiment: as above; assay type: cell-based; conditions: response to 1 μM 5I A85380 normalized to the response to 1 mM ACh
[2] = target: nicotinic α4β2 receptor, α4 & β2 8:1 (Homo sapiens, UniProt P17787+P43681); experiment: as above; assay type: cell-based; conditions: response to 1 μM 5I A85380 normalized to the response to 1 mM ACh
[3] = target: α/β concatemer expressed alone (Homo sapiens, UniProt P17787+P43681); experiment: as above; assay type: cell-based; conditions: response to 1 μM 5I A85380 normalized to the response to 1 mM ACh
β/α & β2 = β/α & β2 (Homo sapiens, UniProt P17787+P43681); experiment: as above; assay type: cell-based
(α4)2(β3)3 = (α4)2(β3)3 receptor; ref Zwart et al., 2006; cited from earlier work
[4] = target: nicotinic α4β2 receptor, α4 & β2 1:8 (Homo sapiens, UniProt P17787+P43681); experiment: Agonist activation, two-electrode voltage clamp of Xenopus oocytes; assay type: cell-based; conditions: response to 1 μM 5I A85380 normalized to the response to 1 mM ACh
α/β & β2 = α/β & β2 (Homo sapiens, UniProt P17787+P43681); experiment: as above; assay type: cell-based
β/α&β2F119Q = β/α&β2F119Q (Homo sapiens, UniProt P17787+P43681, F144Q); experiment: as above; assay type: cell-based
α/β&β-M3-α = α/β&β-M3-α (Homo sapiens, UniProt P17787+P43681, A332P/K336R/P333T/T327R/V337R); assay type: cell-based; conditions: β-M3-α chimera (α4 sequence transferred to β2); 10 μM; Figure 6
α/β&α-M3-β = assay type: cell-based, human; conditions: α-M3-β chimera with the α/β concatemer; 10 μM; Figure 6
[5] = test system: nicotinic α4β2 receptor, pooled combinations of constructs; experiment: Steroid potentiation, values pooled over combinations of constructs; assay type: cell-based, human; conditions: for mean potentiation, single copy of WLAGMI: 10 μM 17β-estradiol
αWLAAC with α/β = αWLAAC with α/β (Homo sapiens, UniProt P43681); assay type: cell-based; conditions: 10 μM, Figure 6
β/αWLAAC&β2 = β/αWLAAC&β2 (Homo sapiens, UniProt P17787+P43681); assay type: cell-based; conditions: β/αWLAAC concatemer with free β2; 10 μM; Figure 6

CC12CCC3c4ccc(O)cc4CCC3C1CCC2O (single isomer, unassigned) [enantiomer of 17β-estradiol]
potentiation of the α4β2 receptor (in words) (nicotinic α4β2 receptor): does not potentiate

Ic1cncc(OC[C@@H]2CCN2)c1 [5I A85380, 5-iodo-3-(2(S)-azetidinylmethoxy) pyridine]
5I A85380 response [1]: 0.44 | 5I A85380 response (β/α & α4): 0.17 | EC50 (α/β&β2F119Q): 0.127 ± 0.014 µM | 5I A85380 maximal response (α/β&β2F119Q; α/β concatemer with β2F119Q, normalized to the response to 1 mM ACh): 1.13 ± 0.11 fold | 5I A85380 response (α/β & α4): 0.14 | 5I A85380 response [2]: 0.19 | 5I A85380 response [3]: 0.16 | EC50 (β/α & β2): 0.029 ± 0.012 µM | 5I A85380 response (β/α & β2; β/α & β2, response to 1 μM 5I A85380 normalized to the response to 1 mM ACh): 1.59 | 5I A85380 maximal response (β/α & β2; β/α concatemer with β2, normalized to the response to 1 mM ACh): 1.44 ± 0.10 fold | maximal response to 5I A85380 compared with ACh ((α4)2(β3)3): greater than the maximal response to ACh | 5I A85380 response [4]: 1.44 | EC50 (α/β & β2): 0.008 ± 0.001 µM | 5I A85380 response (α/β & β2; α/β & β2, response to 1 μM 5I A85380 normalized to the response to 1 mM ACh): 1.84 | 5I A85380 maximal response (α/β & β2; α/β concatemer with wild-type β2, normalized to the response to 1 mM ACh): 1.44 ± 0.07 fold | EC50 (β/α&β2F119Q): 0.016 ± 0.001 µM | 5I A85380 maximal response (β/α&β2F119Q; β/α concatemer with β2F119Q, normalized to the response to 1 mM ACh): 1.29 ± 0.04 fold

C[C@]12CC[C@@H]3c4ccc(O)cc4CC[C@H]3[C@@H]1CC[C@@H]2O [17β-estradiol]
potentiation by 17β-estradiol (in words) (α/β&β-M3-α): confers potentiation | potentiation by 17β-estradiol (in words) (α/β&α-M3-β): removes potentiation | average potentiation by 10 μM 17β-estradiol ([5]; 0 WLAGMI domains, 10 combinations tested): 0.97 ± 0.02 | average potentiation by 10 μM 17β-estradiol ([5]; 1 WLAGMI domain, 10 combinations): 2.2 ± 0.2 | average potentiation by 10 μM 17β-estradiol ([5]; 2 WLAGMI domains, 5 combinations): 2.4 ± 0.4 | average potentiation by 10 μM 17β-estradiol ([5]; 3 WLAGMI domains, 4 combinations): 3.3 ± 0.2 | average potentiation by 10 μM 17β-estradiol ([5]; 5 WLAGMI domains, 3 combinations): 3.7 ± 0.3 | mean potentiation by 17β-estradiol ([5]; 5 cases with no untethered AGMI and 2 or 3 critical tryptophans): 0.94 ± 0.04 | mean potentiation, single copy of WLAGMI ([5]; WLAGMI on α4 N-terminal constructs, N=2 combinations): 1.6 ± 0.1 fold | mean potentiation, single copy of WLAGMI ([5]; WLAGMI on β2 N-terminal constructs, N=8 combinations): 2.3 ± 0.3 fold | mean potentiation, single copy of WLAGMI ([5]; domain on the structural subunit, 4 combinations): 2.4 ± 0.5 fold | potentiation by 17β-estradiol (in words) (αWLAAC with α/β): removes potentiation | potentiation by 17β-estradiol (in words) (β/αWLAAC&β2): but not when it is expressed with free β2
